From patent US7186831B2, “5-halo-2-alkyl[1,2,4]triazolo[1,5-a]pyrimidin-7-amines” (priority 2001, dated 2007) come the findings set out here.

The series in a line: log P by HPLC. In kind it is physicochemical.
Setting [1] is: HPLC, gradient method, acetonitrile/0.1% aqueous phosphoric acid, EEC directive 79/831 Annex V. A8.
The mark [2] stands for this setting: EEC directive 79/831 Annex V. A8 by HPLC (gradient method, acetonitrile/0.1% aqueous phosphoric acid).

SMILES strings stand for the structures.

In the case of `CCc1nc2nc(Cl)c(-c3c(F)cc(F)cc3F)c(N(N)CC(C)C)n2n1` [compound 127], under setting [1], the logP is on record as 3.47.

Consider `Cc1nc2nc(Cl)c(-c3c(F)cccc3F)c(N3CCc4ccccc4C3)n2n1` [compound 327], for which the logP under setting [2] is 3.22.

For `C=C(C)CN(C)c1c(-c2c(F)cccc2Cl)c(Cl)nc2nc(C)nn12` [compound 275], the logP under setting [2] stood at 3.63.

For the molecule `Cc1nc2nc(Cl)c(-c3c(F)cc(F)cc3F)c(NC(C)C(C)C)n2n1` (centres unmarked) [compound 134], the log partition coefficient (logP) under setting [1] amounted to 3.37.

In the case of `Cc1nc2nc(Cl)c(-c3c(F)cccc3F)c(N(C)CC#N)n2n1` [compound 564], the logP under setting [1] was determined as 2.18.

Consider `Cc1nc2nc(Cl)c(-c3ccc(F)cc3F)c(N3CCCCO3)n2n1` [compound 576], for which the logP under setting [1] is given as 2.95.

In turn, `Cc1nc2nc(Cl)c(-c3ccccc3Cl)c(NC(C)C(F)(F)F)n2n1` (centres unmarked) [compound 437] came in with a logP under setting [2] of 3.1.

For the molecule `Fc1cc(F)c(-c2c(Cl)nc3nc(C4CC4)nn3c2N2CCCC2)c(F)c1` [compound 472], the logP under setting [2] is 3.52.

Consider `CN(CC#N)c1c(-c2ccc(F)cc2F)c(Cl)nc2nc(C3CC3)nn12` [compound 719], for which the logP under setting [1] amounted to 2.79.

As to `CC1CCCCN1c1c(-c2ccc(F)cc2Cl)c(Cl)nc2nc(C3CC3)nn12` (centres unmarked) [compound 617], the logP under setting [1] is listed as 4.72.

Molecule `Cc1nc2nc(Cl)c(-c3ccc(F)cc3F)c(N3CCc4ccccc4C3)n2n1` [compound 300] showed a logP under setting [2] of 3.28.

For `Cc1nc2nc(Cl)c(-c3c(F)cc(F)cc3F)c(N3CCCC(O)C3)n2n1` (centres unmarked) [compound 99], the logP under setting [1] was found to be 2.15.

Molecule `Cc1nc2nc(Cl)c(-c3c(F)cccc3F)c(N(C)Cc3ccco3)n2n1` [compound 566] came in with a logP under setting [1] of 2.97.

Molecule `Cc1nc2nc(Cl)c(-c3ccccc3Cl)c(NC3CCCC3)n2n1` [compound 213] had a logP under setting [1] of 3.28.

Take `Fc1ccc(-c2c(Cl)nc3nc(C4CC4)nn3c2N2CCOCC2)c(Cl)c1` [compound 636]: the logP under setting [1] is on record as 3.18.

The molecule `C=C(C)CNc1c(-c2ccc(F)cc2F)c(Cl)nc2nc(C(F)(F)F)nn12` [compound 534] yielded a logP under setting [1] of 3.75.

`CC1CC(C)CN(c2c(-c3ccc(F)cc3F)c(Cl)nc3nc(C(F)(F)F)nn23)C1` (centres unmarked) [compound 797] gave a logP under setting [1] of 5.18.

The molecule `Cc1nc2nc(Cl)c(-c3ccccc3Cl)c(N3CCCCC3C)n2n1` (centres unmarked) [compound 401] showed a logP under setting [2] of 3.91.

Molecule `CC(=O)NC1CCN(c2c(-c3ccc(F)cc3F)c(Cl)nc3nc(C4CC4)nn23)CC1` [compound 516] returned a logP under setting [2] of 2.2.

For the molecule `Fc1ccc(-c2c(Cl)nc3nc(C4CC4)nn3c2N2CCCCN2)c(Cl)c1` [compound 504], the logP under setting [2] amounted to 3.58.

Molecule `Cc1nc2nc(Cl)c(-c3ccc(F)cc3F)c(NC(C)C(F)(F)F)n2n1` (single isomer, unassigned) [compound 360] returned a logP under setting [2] of 2.96.

`C=C(C)CNc1c(-c2ccc(F)cc2Cl)c(Cl)nc2nc(C3CC3)nn12` [compound 626] displayed a logP under setting [1] of 3.59.

For the molecule `C=C(C)CN(C)c1c(-c2c(F)cccc2Cl)c(Cl)nc2nc(C3CC3)nn12` [compound 700], the logP under setting [1] is listed as 4.21.

Molecule `OC1CCN(c2c(-c3ccc(F)cc3F)c(Cl)nc3nc(C(F)(F)F)nn23)C1` (centres unmarked) [compound 555] gave a logP under setting [1] of 2.76.

Regarding `C=CCN(C)c1c(-c2ccccc2Cl)c(Cl)nc2nc(C)nn12` [compound 220], the logP under setting [1] amounted to 3.19.

As for `CCC1=CCN(c2c(-c3ccc(F)cc3F)c(Cl)nc3nc(C(F)(F)F)nn23)CC1` [compound 801], under setting [1], the logP amounted to 4.95.

In the case of `Fc1ccc(-c2c(Cl)nc3nc(C4CC4)nn3c2N2CCCC2)c(F)c1` [compound 606], the logP under setting [1] is recorded as 3.36.

In the case of `Cc1nc2nc(Cl)c(-c3ccc(F)cc3F)c(N3CCSCC3)n2n1` [compound 297], the logP under setting [2] was determined as 2.97.

`COCCN(C)c1c(-c2ccc(F)cc2F)c(Cl)nc2nc(C3CC3)nn12` [compound 669] returned a logP under setting [1] of 3.16.

Consider `Cc1nc2nc(Cl)c(-c3ccc(F)cc3F)c(N3CC(C)OC(C)C3)n2n1` (centres unmarked) [compound 455], for which, under setting [2], the logP amounted to 2.94.

`OC1CCCN(c2c(-c3ccc(F)cc3F)c(Cl)nc3nc(C4CC4)nn23)C1` (centres unmarked) [compound 614] yielded a logP under setting [1] of 2.57.

Consider `Cc1nc2nc(Cl)c(-c3c(F)cccc3F)c(N3CC(C)OC(C)C3)n2n1` (centres unmarked) [compound 169], for which the logP under setting [1] was determined as 2.84.

In turn, `Fc1ccc(-c2c(Cl)nc3nc(C(F)(F)F)nn3c2NC2CCCC(C(F)(F)F)C2)c(F)c1` (centres unmarked) [compound 536] displayed a logP under setting [1] of 4.44.

Molecule `Cc1nc2nc(Cl)c(-c3ccccc3F)c(NOCc3cccc(Cl)c3)n2n1` [compound 367] had a lipophilicity (logP) under setting [2] of 3.28.

Turning to `CCCN(CC1CC1)c1c(-c2ccc(F)cc2F)c(Cl)nc2nc(C)nn12` [compound 356], the logP under setting [2] turned out to be 3.91.

For `Cc1nc2nc(Cl)c(-c3c(F)cc(F)cc3F)c(N3CCOCC3)n2n1` [compound 89], the logP under setting [1] came to 2.43.

Regarding `CC(C)CN(C)c1c(-c2c(F)cccc2Cl)c(Cl)nc2nc(C3CC3)nn12` [compound 698], the logP under setting [1] worked out at 4.32.

Turning to `CC1CCCCN1c1c(-c2ccc(F)cc2F)c(Cl)nc2nc(C3CC3)nn12` (centres unmarked) [compound 611], the logP under setting [1] is given as 4.3.

Molecule `Cc1nc2nc(Cl)c(-c3ccc(F)cc3F)c(N3CC(C)CC(C)C3)n2n1` (centres unmarked) [compound 451] gave a logP under setting [2] of 4.16.

`CCCN(CC1CCCO1)c1c(-c2c(F)cccc2F)c(Cl)nc2nc(C)nn12` (centres unmarked) [compound 347]: the logP under setting [2] was 3.39.

In the case of `CC1=CCCN(c2c(-c3c(F)cccc3F)c(Cl)nc3nc(C)nn23)C1` [compound 317], under setting [2], the logP worked out at 3.39.

As for `Cc1nc2nc(Cl)c(-c3c(F)cccc3Cl)c(N(C)Cc3ccco3)n2n1` [compound 274], under setting [2], the logP is 3.26.

As for `Cc1nc2nc(Cl)c(-c3c(F)cccc3F)c(N3CCC(C(F)(F)F)CC3)n2n1` [compound 180], under setting [1], the logP is on record as 3.36.

On to `Fc1cc(F)c(-c2c(Cl)nc3nc(C4CC4)nn3c2N2CCC(F)CC2)c(F)c1` [compound 675], for which the logP under setting [1] amounted to 3.68.

Turning to `CCC(C)Nc1c(-c2c(F)cc(F)cc2F)c(Cl)nc2nc(C3CC3)nn12` (centres unmarked) [compound 462], the logP under setting [2] was found to be 3.69.

Consider `COCCNc1c(-c2c(F)cccc2Cl)c(Cl)nc2nc(C)nn12` [compound 257], for which the logP under setting [1] is on record as 2.42.

`Cc1nc2nc(Cl)c(-c3ccc(F)cc3F)c(N3CCC(F)CC3)n2n1` [compound 454]: the logP under setting [2] was found to be 2.96.

With `Cc1nc2nc(Cl)c(-c3c(F)cccc3F)c(NC(C)C)n2n1` [compound 174], the logP under setting [1] turned out to be 2.52.

Under setting [2], `C#CCN(C)c1c(-c2c(F)cccc2Cl)c(Cl)nc2nc(C)nn12` [compound 271] showed a logP of 2.77.

Regarding `Fc1cc(F)c(-c2c(Cl)nc3nc(C(F)(F)F)nn3c2N2CCC(C(F)(F)F)CC2)c(F)c1` [Example 1], the chromatographic logP (HPLC) was 4.43.

`Cc1nc2nc(Cl)c(-c3c(F)cccc3F)c(NOC3CCCCO3)n2n1` (centres unmarked) [compound 142]: the logP under setting [1] worked out at 2.54.

Take `Cc1cccc(Nc2c(-c3ccc(F)cc3F)c(Cl)nc3nc(C)nn23)c1` [compound 456]: the logP under setting [2] was determined as 3.

For the molecule `CC(Nc1c(-c2c(F)cc(F)cc2F)c(Cl)nc2nc(C3CC3)nn12)C(F)(F)F` (centres unmarked) [compound 458], under setting [2], the logP is 3.58.

Under setting [2], `Cc1nc2nc(Cl)c(-c3c(F)cccc3F)c(N(C)CC(C)C)n2n1` [compound 335] returned a logP of 3.37.

Consider `C=CCN(CC)c1c(-c2ccc(F)cc2F)c(Cl)nc2nc(C(F)(F)F)nn12` [compound 548], for which the logP under setting [1] was 4.4.

`Cc1nc2nc(Cl)c(-c3c(F)cc(F)cc3F)c(NCCC(F)(F)F)n2n1` [compound 70] displayed a logP under setting [1] of 2.85.

In turn, `Cc1nc2nc(Cl)c(-c3ccccc3Cl)c(NCC#N)n2n1` [compound 403] gave a logP under setting [2] of 2.03.

`Cc1nc2nc(Cl)c(-c3ccccc3F)c(NOC(C)(C)C)n2n1` [compound 374] registered a logP under setting [2] of 2.75.

In turn, `Fc1cc(F)c(-c2c(Cl)nc3nc(C4CC4)nn3c2N2CCOCC2)c(F)c1` [compound 475] returned a logP under setting [2] of 3.02.

`CC1CCCN1c1c(-c2c(F)cccc2Cl)c(Cl)nc2nc(C3CC3)nn12` (centres unmarked) [compound 702] displayed a logP under setting [1] of 3.94.

Consider `CCCCONc1c(-c2c(F)cccc2F)c(Cl)nc2nc(C)nn12` [compound 434], for which the logP under setting [2] was determined as 2.96.

For `C=CCN(C)c1c(-c2c(F)cccc2Cl)c(Cl)nc2nc(C)nn12` [compound 273], the logP under setting [2] was 3.26.

Under setting [1], `CCCCN(CC)c1c(-c2ccccc2Cl)c(Cl)nc2nc(C)nn12` [compound 247] yielded a logP of 4.18.

In turn, `CC(C)NNc1c(-c2c(F)cc(F)cc2F)c(Cl)nc2nc(C(F)(F)F)nn12` [compound 84] came in with a logP under setting [1] of 3.68.

In turn, `CN(C)CCN(C)c1c(-c2ccc(F)cc2F)c(Cl)nc2nc(C(F)(F)F)nn12` [compound 538] displayed a logP under setting [1] of 1.77.

Molecule `Cc1nc2nc(Cl)c(-c3c(F)cccc3F)c(NC(C)C(C)(C)C)n2n1` (centres unmarked) [compound 685] yielded a logP under setting [1] of 3.56.

Under setting [1], `CC1CCN(c2c(-c3c(F)cccc3F)c(Cl)nc3nc(C4CC4)nn23)CC1` [compound 681] showed a logP of 4.34.

`C=CCN(CC)c1c(-c2c(F)cc(F)cc2F)c(Cl)nc2nc(C)nn12` [compound 157]: under setting [1], the logP was found to be 3.5.

On to `C[C@H](Nc1c(-c2ccc(F)cc2F)c(Cl)nc2nc(C3CC3)nn12)C(F)(F)F` (single isomer, unassigned) [compound 489], for which the logP under setting [2] was 3.51.

In the case of `Fc1cccc(Cl)c1-c1c(Cl)nc2nc(C3CC3)nn2c1N1CCCC1` [compound 704], the logP under setting [1] was found to be 3.55.

Regarding `CC(C)CNc1c(-c2ccc(F)cc2F)c(Cl)nc2nc(C(F)(F)F)nn12` [compound 525], under setting [1], the logP was 4.03.

`CCCN(CCOC)c1c(-c2ccc(F)cc2F)c(Cl)nc2nc(C(F)(F)F)nn12` [compound 553] returned a logP under setting [1] of 4.39.

`Fc1ccc(-c2c(Cl)nc3nc(C4CC4)nn3c2NC2CCCCC2C(F)(F)F)c(F)c1` (centres unmarked) [compound 715] yielded a logP under setting [1] of 4.08.

`Cc1nc2nc(Cl)c(-c3ccccc3Cl)c(N3CCCCC3)n2n1` [compound 233] came in with a logP under setting [1] of 3.48.
